Data taken from PMC7822874, “Chemoprotective antimalarials identified through quantitative high-throughput screening of Plasmodium blood and liver stage parasites” (Scientific Reports, 2021).
Where two headings read alike, the source gives them in different places.

Legend:
HepG2-A16-CD81EGFP cells = conditions: average of 2 wells, repeat 2; for HepG2 viability signal, 1 uM, repeat 2: nominal 1 uM (10 mM stock), […] for 15 mM, 1.2 uM for 12 mM, 2 uM for 20 mM stock; for HepG2 viability signal, 3 uM, repeat 2: nominal 3 uM (10 mM stock), 4.5 uM for 15 mM, 3.6 uM for 12 mM, 6 uM for 20 mM stock
[1] = test system: P. berghei-ANKA-GFP-LucCON liver stage parasites in HepG2-A16-CD81EGFP cells; assay: P. berghei liver stage Pb-Luc assay, Method 1 (UCSD, 1536-well); type: cell-based, Plasmodium berghei; conditions: Plasmodium berghei, 48 h, average of 2 wells, 1536-well plate; for activity at 1 µM: nominal 1 uM (10 mM stock), […] for 15 mM, 1.2 uM for 12 mM, 2 uM for 20 mM stock; for activity at 3 µM: nominal 3 uM (10 mM stock), 4.5 uM for 15 mM, 3.6 uM for 12 mM, 6 uM for 20 mM stock; as to all read-outs here: reference of the scale not given here
in vitro = conditions: human, HepG2-A16-CD81EGFP cells, uninfected
[2] = test system: Plasmodium falciparum Dd2 asexual blood stage parasites; assay: microbe, parasite or virus in culture; parameters: species or system Plasmodium falciparum Dd2 in human erythrocytes; single determination (one 11-point concentration-response curve); conditions: Plasmodium falciparum, DD2, Erythrocyte, 72 h; read-out: AC50
[3] = repeat 1, read-out: Pb-Luc signal, 1 uM, repeat 1
[4] = repeat 2, read-out: Pb-Luc signal, 1 uM, repeat 2
[5] = repeat 3, read-out: Pb-Luc signal, 1 uM, repeat 3
[6] = repeat 1, read-out: Pb-Luc signal, 3 uM, repeat 1
[7] = repeat 2, read-out: Pb-Luc signal, 3 uM, repeat 2
[8] = repeat 3, read-out: Pb-Luc signal, 3 uM, repeat 3

Compound	HepG2 viability signal, 1 uM, repeat 2 (HepG2-A16-CD81EGFP cells) [%]	HepG2 viability signal, 3 uM, repeat 2 (HepG2-A16-CD81EGFP cells) [%]	activity at 1 µM [1, 3] [%]	activity at 1 µM [1, 4] [%]	activity at 1 µM [1, 5] [%]	activity at 3 µM [1, 6] [%]	activity at 3 µM [1, 7] [%]	activity at 3 µM [1, 8] [%]	viability at 48 h, 1 µM (in vitro) [%]	viability at 48 h, 3 µM (in vitro) [%]	AC50 [2] [nM]
CCN1CCN(Cc2c(O)ccc3c(=O)c(Oc4ccccc4C(C)C)c(C(F)(F)F)oc23)CC1 [NCGC00100599-01]	96.13	100.51	78.6	113	135	70	89.4	121	97.5	99.2	596
CCOC(=O)c1c(S(=O)(=O)N2CCCC(C(=O)N3CCN(c4cccc(C)c4C)CC3)C2)c(C)n(C)c1C (stereo not drawn) [NCGC00138143-01]	101.67	102.57	90.2	90.3	120	83.2	98.3	108	96.4	99.6	1060
O=C(Nc1ccc2c(N3CCCC3)ncnc2c1)c1cccc(F)c1 [NCGC00425501-01]	97.92	95.12	97.2	101	106	56.8	72.2	29.3	98.5	94.4	4730
CCN(Cc1ccccc1)C(=O)CCC[C@@H]1[C@H]2CCCN3CCC[C@@H](CN1C(=O)c1ccccc1)[C@@H]23 [NCGC00429496-01]	99.16	100.31	107	115	85.5	89.3	121	99.6	93.4	93.8	13300
CCOc1ccccc1CN1CCCN(Cc2ccncc2)C(c2ccccc2)CC(=O)NCC1 (stereo not drawn) [NCGC00467181-01]	96.74	96.24	105	89.1	111	102	80.2	86.4	101	96.8	6680
CC(C)c1ccccc1Oc1c(C(F)(F)F)oc2c(CN3CCN(C)CC3)c(O)ccc2c1=O [NCGC00100597-01]	96.39	99.40	104	108	80.4	67.9	95.1	69.5	101	102	668
CCN1CCN(C(=O)c2ccc3c(c2)N(Cc2ccccc2F)C(=O)c2ccccc2[S+]3[O-])CC1 (stereo not drawn) [NCGC00109528-01]	95.20	97.54	102	105	110	94.3	116	97.6	101	98.8	841
COc1ccc2[nH]c(C[C@@H]3C[C@@H](C(C)C)[C@H](CNCc4ccccc4OC)C=C3C)nc2c1 [NCGC00392082-01]	98.07	97.57	67	80.5	77.5	48.5	52	40.1	99	97.1	9440
Cc1ccc(C)c(Cn2c(=O)n(CCCCC(=O)NCc3ccc4c(c3)OCO4)c(=O)c3ccccc32)c1 [NCGC00106276-01]	102.61	103.78	69	120	109	132	95.7	87.2	99.1	93.3	6680
CC1=C(C(=O)Nc2ccc(C)cc2C)C(c2cc(Br)ccc2F)n2ncc(C(=O)Nc3ccc(C)cc3)c2N1 (stereo not drawn) [NCGC00126328-01]	98.10	99.55	99.2	113	121	61.3	103	73.4	100	107	1500
COc1ccc(-c2cc(=O)oc3c4c(ccc23)OCN(Cc2ccccc2)C4)cc1 [NCGC00116344-01]	95.59	97.26	71.5	126	103	62.6	101	76.9	98.2	101	2990
CCN1CCN(Cc2c(O)ccc3c(=O)c(Oc4ccccc4Cl)c(C(F)(F)F)oc23)CC1 [NCGC00101484-01]	99.03	97.39	88.6	66	90.1	93.5	101	77.7	99.8	94.1	596
CC1CCCN(Cc2c(O)ccc3c(=O)c(-c4ccccc4Cl)c(C(F)(F)F)oc23)C1 (stereo not drawn) [NCGC00100585-01]	105.16	104.39	99.2	115	106	62.6	101	122	108	112	841
Cn1nc(C(=O)NCC(=O)N2CCCCCCNC(=O)CC2c2ccccc2)c2ccccc21 (stereo not drawn) [NCGC00467428-01]	105.85	101.81	90.2	74	75.4	105	88.2	105	108	106	2110
CCOC(=O)C1(Cc2ccccc2Cl)CCNCC1 [NCGC00430911-01]	100.98	101.65	78.1	97.3	89.2	74.5	106	93.5	94.6	94.7	2660
CCOC(=O)c1ccc2c(c1)[C@@H]1C=CC[C@@H]1[C@H](c1cccc(OC)c1OC)N2 [NCGC00100279-01]	100.32	102.96	74.5	94.6	122	60.1	74.5	64.8	97.9	105	2660
CCN1CCN(c2cc(C)c3cc(NC(=O)c4cc(OC)c(OC)c(OC)c4)ccc3n2)CC1 [NCGC00137500-01]	103.37	106.17	125	156	138	126	103	114	100	103	1330
Cc1ccc(C)c(Oc2c(C(F)(F)F)oc3c(CN4CCN(C)CC4)c(O)ccc3c2=O)c1 [NCGC00141020-01]	106.86	105.57	97.7	131	113	86	92.3	113	110	115	750
